Measurements as given in patent US20250145665A1, “MACROCYCLIC PEPTIDES USEFUL AS MODULATORS OF TNF ALPHA” (Bristol-Myers Squibb Company, priority 2023, published 2025).
Where two headings read alike, the source gives them in different places. Starred links: 1 amine or outer side, 2 acyl side, 3 side chain; linkers in the order of their positions; H or OH if unused. Positions of bridges follow the written chain, without caps; N, C: chain ends. Non-standard residues stand in square brackets, D forms with d. Residues, ends and D or L forms follow the SMILES beside them. *: point of attachment. Bip(4'-(3-HOOC-benzamido)) = N[C@@H](Cc1ccc(-c2ccc(NC(=O)c3cccc(C(=O)O)c3)cc2)cc1)C(=O)O; Bip(4'-NHBz) = N[C@@H](Cc1ccc(-c2ccc(NC(=O)c3ccccc3)cc2)cc1)C(=O)O; Bip(4'-NH) = O=C([C@H](Cc1ccc(-c2ccc(N[*:3])cc2)cc1)N[*:1])[*:2]; Bip(4'-CONHMe) = CNC(=O)c1ccc(-c2ccc(C[C@H](N)C(=O)O)cc2)cc1; Indazole3carbonyl(1-CH2COOH) = O=C(O)Cn1nc(C(=O)*)c2ccccc21; Bip(4'-COOH) = N[C@@H](Cc1ccc(-c2ccc(C(=O)O)cc2)cc1)C(=O)O; Bip(4'-NHAc) = CC(=O)Nc1ccc(-c2ccc(C[C@H](N)C(=O)O)cc2)cc1; X42 = O=C(O)Cn1cc(C[C@H](NC(=O)c2ccccc2)C(=O)*)c2ccccc21; Ala(morpholin-4-yl) = N[C@@H](CN1CCOCC1)C(=O)O; Phe(3-CONH2) = NC(=O)c1cccc(C[C@H](N)C(=O)O)c1; X12 = N=C(NCCO)NCCC[C@@H](N[*:1])C(=O)[*:2]; Bip = N[C@@H](Cc1ccc(-c2ccccc2)cc1)C(=O)O; X67 = O=C(O)c1ccc(-c2cccc(C(=O)*)c2)cc1; X75 = O=C(O)Cn1ccc2c(C(=O)*)cccc21; 2Pal = N[C@@H](Cc1ccccn1)C(=O)O; Tic = O=C(O)[C@@H]1Cc2ccccc2CN1; Cha = N[C@@H](CC1CCCCC1)C(=O)O; Tle = CC(C)(C)[C@H](N)C(=O)O; Sar = CNCC(=O)O

Target: TNFα (Homo sapiens, UniProt P01375)
Assay: TNF-Induced HEK-Blue Assay
Format: cell-based
[1] = HEK-Blue-CD40L cells, NF-kB-driven secreted alkaline phosphatase reporter, TNFα 0.5 ng/ml, 18 h, read-out: TNF induced HEK-Blue assay IC50 value

Sequence of TNFα (P01375 77-233 limits assumed): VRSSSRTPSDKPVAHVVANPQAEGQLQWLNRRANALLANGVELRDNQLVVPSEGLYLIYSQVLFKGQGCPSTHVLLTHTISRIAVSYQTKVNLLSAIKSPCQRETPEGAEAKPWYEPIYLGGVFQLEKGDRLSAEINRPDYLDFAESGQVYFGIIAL

Structure (SMILES) | IC50 [nM] | IC50 [1] [nM]
CC[C@H](C)[C@@H]1NC(=O)[C@@H]2CCCN2C(=O)[C@H]([C@@H](C)CC)NC(=O)[C@@H](CCCNC(=N)N)NC(=O)[C@H](CC(=O)O)NC(=O)[C@H](Cc2ccccn2)NC(=O)CN(C)C(=O)[C@H](Cc2ccc(-c3ccc(NC(=O)[C@H](Cc4cn(CC(=O)O)c5ccccc45)NC(=O)c4ccccc4)cc3)cc2)NC(=O)[C@H](Cc2ccc(-c3ccccc3)cc2)NC(=O)[C@H](C(C)(C)C)NC(=O)CSC[C@@H](C(=O)NCC(N)=O)NC(=O)[C@H](CC(C)C)NC(=O)[C@H](Cc2cccc(C(N)=O)c2)NC1=O [Example 380] ({CH2CO}-[Tle][Bip][Bip(4'-NH)](X42)[Sar][2Pal]D[dR]IPI[Phe(3-CONH2)]LCG-NH2; thioether N-13) | 50 to 200 | –
CC(C)C[C@@H]1NC(=O)[C@H](Cc2ccc(O)cc2)NC(=O)[C@H](C(C)C)NC(=O)[C@@H]2Cc3ccccc3CN2C(=O)[C@H](C(C)C)NC(=O)[C@@H](CCCNC(=N)N)NC(=O)[C@H](CC(=O)O)NC(=O)[C@@H]2CCCN2C(=O)CN(C)C(=O)[C@H](Cc2ccc(-c3ccc(NC(=O)c4cccc(-c5ccc(C(=O)O)cc5)c4)cc3)cc2)NC(=O)[C@H](Cc2ccc(-c3ccc(C(=O)O)cc3)cc2)NC(=O)[C@H](CC2CCCCC2)NC(=O)CSC[C@@H](C(=O)NCC(N)=O)NC1=O [Example 381] ({CH2CO}-[Cha][Bip(4'-COOH)][Bip(4'-NH)](X67)[Sar]PD[dR]V[Tic]VYLCG-NH2; thioether N-13) | – | 50 to 200
CC(C)C[C@@H]1NC(=O)[C@H](CCCNC(=N)N)NC(=O)[C@H](C(C)C)NC(=O)[C@@H]2CCCN2C(=O)[C@H](C(C)C)NC(=O)[C@@H](CCCNC(=N)N)NC(=O)[C@H](CC(=O)O)NC(=O)[C@@H]2CCCN2C(=O)CN(C)C(=O)[C@H](Cc2ccc(-c3ccc(NC(=O)c4cccc5c4ccn5CC(=O)O)cc3)cc2)NC(=O)[C@H](Cc2ccc(-c3ccccc3)cc2)NC(=O)[C@H](CN2CCOCC2)NC(=O)CSC[C@@H](C(=O)NCC(N)=O)NC1=O [Example 382] ({CH2CO}-[Ala(morpholin-4-yl)][Bip][Bip(4'-NH)](X75)[Sar]PD[dR]VPVRLCG-NH2; thioether N-13) | – | < 50
CC(C)C[C@@H]1NC(=O)[C@H](Cc2ccc(O)cc2)NC(=O)[C@H](C(C)C)NC(=O)[C@@H]2Cc3ccccc3CN2C(=O)[C@H](C(C)C)NC(=O)[C@@H](CCCNC(=N)N)NC(=O)[C@H](CC(=O)O)NC(=O)[C@@H]2CCCN2C(=O)CN(C)C(=O)[C@H](Cc2ccc(-c3ccc(NC(=O)c4ccccc4)cc3)cc2)NC(=O)[C@H](Cc2ccc(-c3ccc(C(=O)O)cc3)cc2)NC(=O)[C@H](CC2CCCCC2)NC(=O)CSC[C@@H](C(=O)NCC(N)=O)NC1=O [Example 383] ({CH2CO}-[Cha][Bip(4'-COOH)][Bip(4'-NHBz)][Sar]PD[dR]V[Tic]VYLCG-NH2; thioether N-13) | 50 to 200 | –
CC(C)C[C@@H]1NC(=O)[C@H](Cc2ccc(O)cc2)NC(=O)[C@H](C(C)C)NC(=O)[C@@H]2Cc3ccccc3CN2C(=O)[C@H](C(C)C)NC(=O)[C@@H](CCCNC(=N)N)NC(=O)[C@H](CC(=O)O)NC(=O)[C@@H]2CCCN2C(=O)CN(C)C(=O)[C@H](Cc2ccc(-c3ccc(NC(=O)c4cccc(C(=O)O)c4)cc3)cc2)NC(=O)[C@H](Cc2ccc(-c3ccc(C(=O)O)cc3)cc2)NC(=O)[C@H](CC2CCCCC2)NC(=O)CSC[C@@H](C(=O)NCC(N)=O)NC1=O [Example 384] ({CH2CO}-[Cha][Bip(4'-COOH)][Bip(4'-(3-HOOC-benzamido))][Sar]PD[dR]V[Tic]VYLCG-NH2; thioether N-13) | – | 50 to 200
CC[C@H](C)[C@@H]1NC(=O)[C@@H]2CCCN2C(=O)[C@H]([C@@H](C)CC)NC(=O)[C@@H](CCCNC(=N)N)NC(=O)[C@H](CC(=O)O)NC(=O)[C@H](Cc2ccccc2)NC(=O)CN(C)C(=O)[C@H](Cc2ccc(-c3ccc(NC(C)=O)cc3)cc2)NC(=O)[C@H](Cc2ccc(-c3ccc(C(=O)NC)cc3)cc2)NC(=O)[C@H](C(C)(C)C)NC(=O)CSC[C@@H](C(=O)NCC(N)=O)NC(=O)[C@H](CC(C)C)NC(=O)[C@H](Cc2cnc[nH]2)NC1=O [Example 385] ({CH2CO}-[Tle][Bip(4'-CONHMe)][Bip(4'-NHAc)][Sar]FD[dR]IPIHLCG-NH2; thioether N-13) | – | < 50
CNC(=O)c1ccc(-c2ccc(C[C@@H]3NC(=O)[C@H](CC4CCCCC4)NC(=O)CSC[C@@H](C(=O)NCC(N)=O)NC(=O)[C@H](CC(C)C)NC(=O)[C@H](Cc4ccc(O)cc4)NC(=O)[C@H](C(C)C)NC(=O)[C@@H]4Cc5ccccc5CN4C(=O)[C@H](C(C)C)NC(=O)[C@@H](CCCNC(=N)N)NC(=O)[C@H](CC(=O)O)NC(=O)[C@@H]4CCCN4C(=O)CN(C)C(=O)[C@H](Cc4ccc(-c5ccc(NC(C)=O)cc5)cc4)NC3=O)cc2)cc1 [Example 386] ({CH2CO}-[Cha][Bip(4'-CONHMe)][Bip(4'-NHAc)][Sar]PD[dR]V[Tic]VYLCG-NH2; thioether N-13) | – | 50 to 200
CC(C)C[C@@H]1NC(=O)[C@H](CCCNC(=N)N)NC(=O)[C@H](C(C)C)NC(=O)[C@@H]2CCCN2C(=O)[C@H](C(C)C)NC(=O)[C@@H](CCCNC(=N)NCCO)NC(=O)[C@H](CC(=O)O)NC(=O)[C@@H]2CCCN2C(=O)CN(C)C(=O)[C@H](Cc2ccc(-c3ccc(NC(=O)c4nn(CC(=O)O)c5ccccc45)cc3)cc2)NC(=O)[C@H](Cc2ccc(-c3ccccc3)cc2)NC(=O)[C@H](CN2CCOCC2)NC(=O)CSC[C@@H](C(=O)NCC(N)=O)NC1=O [Example 387] ({CH2CO}-[Ala(morpholin-4-yl)][Bip][Bip(4'-NH)](Indazole3carbonyl(1-CH2COOH))[Sar]PD[X12]VPVRLCG-NH2; thioether N-13) | < 50 | –
